Literature values, collected in patent US20240122955A1, “ORAL DELIVERY” (GUANGZHOU DAZHOU BIOMEDICINE LTD., priority 2021, published 2024).

Experiments:
[1] = T2D patients with high risk of cardiovascular disease events, versus the placebo group
[2] = target: T1, SGLT2 (Homo sapiens, UniProt P31639); details: among the three FDA approved drugs canagliflozin, dapagliflozin, empagliflozin
T1 sequence (P31639 1-672): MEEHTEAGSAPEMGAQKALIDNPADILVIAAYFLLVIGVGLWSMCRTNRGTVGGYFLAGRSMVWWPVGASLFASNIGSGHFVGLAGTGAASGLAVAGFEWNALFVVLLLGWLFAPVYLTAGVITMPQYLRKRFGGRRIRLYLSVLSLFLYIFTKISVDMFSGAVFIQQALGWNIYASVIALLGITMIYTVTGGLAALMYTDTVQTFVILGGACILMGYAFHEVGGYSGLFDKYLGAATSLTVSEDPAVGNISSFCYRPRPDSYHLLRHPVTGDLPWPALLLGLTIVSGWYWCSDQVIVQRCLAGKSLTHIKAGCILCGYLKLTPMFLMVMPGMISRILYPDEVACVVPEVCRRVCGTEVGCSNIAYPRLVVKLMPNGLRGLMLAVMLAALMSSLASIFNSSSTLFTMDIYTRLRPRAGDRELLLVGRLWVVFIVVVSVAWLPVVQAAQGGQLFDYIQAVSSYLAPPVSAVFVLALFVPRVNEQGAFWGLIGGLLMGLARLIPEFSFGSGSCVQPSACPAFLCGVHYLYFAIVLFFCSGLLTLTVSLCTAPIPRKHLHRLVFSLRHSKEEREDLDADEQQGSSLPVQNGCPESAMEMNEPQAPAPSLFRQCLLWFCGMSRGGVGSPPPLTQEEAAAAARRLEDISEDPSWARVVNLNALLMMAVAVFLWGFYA

Compound	relative risk reduction in death from cardiovascular causes [1] [%]	selectivity for SGLT2 compared to SGLT1 [2]
OCC1O[C@@H](c2ccc(Cl)c(Cc3ccc(O[C@@H]4CCOC4)cc3)c2)C(O)C(O)[C@@H]1O (stereo partly drawn) [empagliflozin]	38	greatest selectivity
Cc1ccc([C@@H]2O[C@H](CO)[C@@H](O)[C@H](O)[C@H]2O)cc1Cc1ccc(-c2ccc(F)cc2)s1 [canagliflozin]	–	least selective
